Earlier results, collected in patent US9585850B2, “Methods of treatment using arylcyclopropylamine compounds” (Duke University, priority 2011, dated 2017).

Tested on: DDD mice
Conditions: Sotnikova et al.
For N[C@@H](Cc1ccc(O)c(O)c1)C(=O)O [L-DOPA, L-3,4-dihydroxyphenylalanine], the “restoration of locomotion / treatment of akinesia in DDD mice” value is listed as “fully restored locomotion”. For CN1CCc2cccc3c2[C@H]1Cc1ccc(O)c(O)c1-3 [apomorphine], the “restoration of locomotion / treatment of akinesia in DDD mice” value is listed as “effective in treating akinesia”. In the case of CCCN1C[C@H](CSC)C[C@@H]2c3cccc4[nH]cc(c34)C[C@H]21 [pergolide], the “restoration of locomotion / treatment of akinesia in DDD mice” value is given as “effective in treating akinesia”.
